“Also recorded” adds a separate entry of the source. Read-outs that look alike come from different tables or passages of the source.
Tests used:
[1] = dog model having myocardial infarction; type: in vivo
Source text: (§1) The properties of Danshensu are studied.

[2] = pituitary myocardial ischemia in rats, electrocardiac abnormality; type: in vivo
Source text: as §1

[3] = internal distribution of Danshensu by HPLC after intravenous Danshen preparation; type: in vivo, domestic rabbit; details: after i.v. Danshen preparation
Protocol: HPLC is used to study the domestic rabbit's internal distribution and content of the Chinese Danshen preparation's Danshensu. […] Adrenal tissue's average is 14.15 μg/g (+0.33), liver's tissue average 17.69 μg/g (+4.44), lung's tissue average 19.73 μg/g (+4.00), heart's tissue average 12.30 μg/g (+2.18), brain's tissue average 5.45 μg/g (+0.60) and spleen's tissue average 4.66 μg/g (+0.68).

[4] = pharmacokinetics of Danshensu after auricular vein injection; type: in vivo, rabbits; details: 30 mg/kg i.v.
Protocol: Pharmacokinetics of Danshenu in the biological body is studied. After the selected 5 rabbits' auricular veins are injected with Danshensu (injection of 30 mg/kg), blood is drawn regularly every 15, 30, 60, 90, 120 and 150 minutes. Obtain blood plasma and manipulate like before. Determine concentration of the blood medication. Use blank plasma for controlling. According to the mean from the experimental data, with the use of the logarithm and time of Danshensu concentration, create chart which is a straight line.

[5] = test system: isolated pig's coronary artery; test: isolated pig's coronary artery perfusion (modified Oglatree preparation)
Source text: as §1
Effect of Danshensu [β-(3,4)-dihydroxyphenyl lactic acid] upon the isolated pig's coronary artery is studied. […] The method, which is different from the method of Oglatree isolated coronary artery preparation, is to have both ends of the isolated pig's coronary artery segment ligated to the perfusion cannula.
Test the same specimen by successively giving it 3 crescendo doses of morphine hydrochloride. Record the largest titer of P after each administration. Using Krbs-Henselait liquid to douche the perfusion system 3 times. When the basic line returns to normal, the effect is very obvious after the application of Danshensu (causing the medical concentration in the perfusion system turning into […]). Repeatedly administrate the same 3 crescendo doses of morphine hydrochloride successively like above. Observe the effect of Danshensu on the systole of coronary artery caused by morphine. Again, after the above-mentioned doses of Danshensu are applied, administrate repeatedly 4 crescendo doses of hydrochloric propanol. Observe the effect of Danshensu on the coronary artery systole caused by propanol. The sequence of administration resembles the above. In addition, after the application of Danshensu, repeat the administration by giving 3 crescendo doses of KCI and 3 crescendo doses of reserpine. […]

[6] = toleration time in anoxic state in mice; type: in vivo
Source text: as §1

isolated heart = test: isolated heart: coronary blood flow, fibrinolysis
Source text: as §1

[7] = cited from earlier work
[8] = 100 mg/kg i.v.
Protocol: Study of pharmacokinetics of Matrine is carried out. […] Rats are given intravenous injection of oxymatrine 100 mg/kg.

solubility = test: solubility
Protocol: Matrine is also called matricaria. Its molecular formula is C15H24N2O and its molecular weight is 248.36. It has four isomers: α, β, γ, and δ isomers. α-matrine is the one commonly seen. It is a needle or rhombohedral crystal, having a melting point 76° C. and [α]D+39.1° (H2O).
Oxymatrine has a molecular formula C15H24N2O2 and a molecular weight 264.36. It is a colorless columnar crystal (Me2CO), melting point 162° C. (hydrate), 207° C. (anhydrate), [α]D+47.7° (C2H5OH). […] It can change to matrine through reaction with SO2.

[9] = pharmacokinetics of oxymatrine and matrine in mice
[10] = within 24 hours of intramuscular oxymatrine 100 mg/kg

## O=C(O)[C@H](O)Cc1ccc(O)c(O)c1 [Danshensu, D(+) β-(3,4-dihydroxyphenyl) lactic acid]
[1]
  area suffered from myocardial infarction: the area suffered from myocardial infarction is reduced
  heart function: the heart function is improved
[2]
  electrocardiac abnormality of pituitary myocardial ischemia: restore the electrocardiac abnormality
[3]
  Danshensu content, adrenal tissue average: 14.15 µg/g
  Danshensu content, brain tissue average: 5.45 µg/g
  Danshensu content, heart tissue average: 12.30 µg/g
  Danshensu content, liver tissue average: 17.69 µg/g
  Danshensu content, lung tissue average: 19.73 µg/g
  Danshensu content, spleen tissue average: 4.66 µg/g
[4]
  pharmacokinetic model: single ventricular model
[4]; rabbit, in vivo, iv, 5 rabbits, read-out: biological half-life t1/2
  half-life: 16.6 min
[5]; Danshensu 1×10^6 g/ml in perfusion system, 31 strips, 40 experiments
  P: -2.54±0.48 mmHg
[5]; isolated pig coronary artery
  dilatation of coronary artery smooth muscle: dilate the smooth muscle of coronary artery; also recorded: obvious dilatation effect
[6]
  toleration time in anoxic state: prolong the toleration time in anoxic state
Isolated heart
  fibrinolysis: relatively weaker function in fibrinolysis
Isolated heart; isolated heart
  blood flow of coronary artery: increasing the blood flow of coronary artery

## O=C1CCC[C@@H]2[C@H]3CCC[N+]4([O-])CCC[C@@H](CN12)[C@@H]34 (some centres unmarked) [Oxymatrine]
[7]; intramuscular injection
  LD50: 256.74 ± 573.6 mg/kg
[7]; intravenous injection
  LD50: 144.2 ± 22.8 mg/kg
[8]
  distribution and elimination: distribution is wide and the elimination fast
solubility
  solubility: soluble in water, chloroform and ethanol, but nearly insoluble in ether, methyl ether and petroleum ether
[9]; stomach perfusion
  transformation in the gastrointestinal tract: gradually transforms into matrine in the gastrointestinal tract
[9]; [10]
  excretion of oxymatrine: 5.1%
  matrine found in the emiction of urine: 20.6%

Reference: patent publication US7384657B2, “Composition of natural herb extract for treating cardiovascular disease and its method of preparation thereof” (priority 2004, dated 2008)
